Data as given in patent US20250241892A1, “5-METHOXY-N,N-[…][…] THE TREATMENT OF PSYCHOMOTOR RETARDATION” (GH RESEARCH IRELAND LIMITED, priority 2022, published 2025).

Tested on: patients with postpartum depression (PPD)
Assay: Clinical trial of inhaled 5-MeO-DMT in postpartum depression
Details: 1 patient
Procedure: The single-arm, open-label clinical trial will involve 15 adult female patients with clinically diagnosed postpartum depression (PPD).
The second dose (12 mg) will only be administered if: • a. A peak experience (total score of ⋅75) has not been achieved following the 6 mg dose, and • b. The 6 mg dose was safe and well-tolerated according to the investigator, • c. Any psychoactive effects (PsE) of the prior dose have subsided, and • d. Pre-dose vital parameters and forced expiratory volume in one second (FEV1) are in normal range, or if outside of the normal range, are not clinically significant according to the investigator. • 3. Similarly, a third dose (18 mg) will only be administered if: • a. A peak experience (total score of ⋅75) has not been achieved following the 12 mg dose, and • b. The 12 mg dose was safe and well-tolerated according to the investigator, and • c. Any PsE of the prior dose have subsided, and • d. Pre-dose vital parameters and forced expiratory volume in one second (FEV1) are in normal range, or if outside of the normal range, are not clinically significant according to the investigator.
The patients will be assessed for a peak psychedelic experience (based on a patient-scored visual analogue scale, the PE scale), sedation, and other endpoints after dosing. Follow-up visits are planned for Day 1, and Day 7 after the dosing day.
The following criteria must be met by all patients considered for clinical trial participation: • 1. Is female and in the age range between 18 and 45 years (inclusive) at screening. • 2. Has a body mass index (BMI) in the range of 18.5 and 35 kg/m^2 (inclusive) at screening. • 3. Meets the trial criteria for PPD as assessed by a trial psychiatrist or registered psychologist: • a. Diagnosis of Major Depressive Disorder without psychotic features, confirmed by the Mini-International Neuropsychiatric Interview (MINI), with peri-partum onset that began no earlier than gestation and no later than the first 4 weeks postpartum. • b. Has a Montgomery-Åsberg Depression Rating Scale (MADRS) total score of equal to or greater than 28 at screening and pre-dose on Day 0. • 6. […] Patients must have a negative pregnancy test at screening and on the pre-test day (Day −1). • 5. Is willing to delay start of other antidepressant or anxiety medication until after the end of the trial at Day 7 and agrees to keep any psychotherapy unchanged during the trial.
A potential patient who meets any of the following key exclusion criteria will be excluded from participation in this trial: • 1. Has, based on history, psychiatric assessment, and evaluation of the MINI, a current or prior diagnosis of bipolar disorder, a manic or hypomanic episode, a psychotic disorder, Major Depressive Disorder (MDD) or other mood disorder with psychotic features, obsessive compulsive disorder, post-traumatic stress disorder (PTSD), autism spectrum disorder, borderline personality disorder, schizophrenia, delusional disorder, paranoid personality disorder, schizoaffective disorder, clinically significant intellectual disability, or any other psychiatric comorbidity that renders the patient unsuitable for the trial according to the investigator's judgment. • 2. Has one or more first or second degree relatives with a current or previously diagnosed bipolar disorder, psychotic disorder or other mood disorder (including MDD) with psychotic features. • 3. Is in the judgement of a trial psychiatrist or registered psychologist, at significant risk for suicide based on history, psychiatric assessment, and evaluation of suicidal ideation and suicidal behaviour based on the Columbia-Suicide Severity Rating Scale (C-SSRS). • 4. Has taken anti-depressive medication within 14 days or 5 half-lives (whichever is longer) prior to dosing (exception: within the last 5 weeks in the case of fluoxetine). • 5.

Compound: COc1ccc2[nH]cc(CCN(C)C)c2c1 [5-MeO-DMT]
- ECG (3 hours), safety laboratory analyses (7 days), CADSS (3 hours, 1 day, 7 days): unremarkable
- Reported adverse events (cramping left abdominal pain and headache, Day 0): mild, short-lasting and resolved spontaneously
- Standard criteria for MADRS remission (MADRS total score equal or less than 10): fulfilled
- Standard criteria for MADRS response (at least 50% improvement from baseline): fulfilled
- Tolerability of the inhalation procedure: well tolerated with no inhalation-related adverse events
- MADRS Apparent sadness improvement (2 hr vs baseline): 5
- MADRS Concentration Difficulties improvement (2 hr vs baseline): 0
- MADRS Inability to Feel improvement (2 hr vs baseline): 3
- MADRS Inner Tension improvement (2 hr vs baseline): 5
- MADRS Lassitude improvement (2 hr vs baseline): 3
- MADRS Pessimistic Thoughts improvement (2 hr vs baseline): 4
- MADRS Reduced Sleep improvement (2 hr vs baseline): 0
- MADRS Reduced appetite improvement (2 hr vs baseline): 0
- MADRS Reported sadness improvement (2 hr vs baseline): 4
- MADRS Suicidal Thoughts improvement (2 hr vs baseline): 0
- MADRS Concentration Difficulties score (2 hr, baseline 0): 0
- MADRS Reduced appetite score (2 hr, baseline 0): 0
- MADRS Suicidal Thoughts score (2 hr, baseline 0): 0
- MADRS Inability to Feel score (2 hr, baseline 3): 0
- MADRS Lassitude score (2 hr, baseline 3): 0
- MADRS Pessimistic Thoughts score (2 hr, baseline 4): 0
- MADRS Reported sadness score (2 hr, baseline 4): 0
- MADRS Apparent sadness score (2 hr, baseline 5): 0
- MADRS Inner Tension score (2 hr, baseline 5): 0
- MADRS Reduced Sleep score (2 hr, baseline 5): 5
- MADRS Concentration Difficulties score (Day 1, baseline 0): 0
- MADRS Reduced appetite score (Day 1, baseline 0): 0
- MADRS Suicidal Thoughts score (Day 1, baseline 0): 0
- BPRS Blunted affect score (Day 1, baseline 1): 1
- BPRS Conceptual disorganization score (Day 1, baseline 1): 1
- BPRS Disorientation score (Day 1, baseline 1): 1
- BPRS Grandiosity score (Day 1, baseline 1): 1
- BPRS Hallucinatory behaviour score (Day 1, baseline 1): 1
- BPRS Hostility score (Day 1, baseline 1): 1
- BPRS Mannerisms and Posturing score (Day 1, baseline 1): 1
- BPRS Motor retardation score (Day 1, baseline 1): 1
- BPRS Suspiciousness score (Day 1, baseline 1): 1
- BPRS Uncooperativeness score (Day 1, baseline 1): 1
- BPRS Unusual Thought Content score (Day 1, baseline 1): 1
- BPRS Excitement score (Day 1, baseline 2): 1
- MADRS Inability to Feel score (Day 1, baseline 3): 0
- MADRS Lassitude score (Day 1, baseline 3): 0
- MADRS Pessimistic Thoughts score (Day 1, baseline 4): 0
- MADRS Reported sadness score (Day 1, baseline 4): 0
- BPRS Emotional withdrawal score (Day 1, baseline 5): 1
- MADRS Apparent sadness score (Day 1, baseline 5): 0
- MADRS Inner Tension score (Day 1, baseline 5): 0
- MADRS Reduced Sleep score (Day 1, baseline 5): 0
- BPRS Depressive Mood score (Day 1, baseline 6): 1
- BPRS Guilt feelings score (Day 1, baseline 6): 1
- BPRS Somatic Concern score (Day 1, baseline 6): 1
- BPRS Tension score (Day 1, baseline 6): 1
- BPRS Anxiety score (Day 1, baseline 7): 1
- BPRS Anxiety improvement (Day 1 vs baseline): 6
- BPRS Blunted affect improvement (Day 1 vs baseline): 0
- BPRS Conceptual disorganization improvement (Day 1 vs baseline): 0
- BPRS Depressive Mood improvement (Day 1 vs baseline): 5
- BPRS Disorientation improvement (Day 1 vs baseline): 0
- BPRS Emotional withdrawal improvement (Day 1 vs baseline): 4
- BPRS Excitement improvement (Day 1 vs baseline): 1
- BPRS Grandiosity improvement (Day 1 vs baseline): 0
- BPRS Guilt feelings improvement (Day 1 vs baseline): 5
- BPRS Hallucinatory behaviour improvement (Day 1 vs baseline): 0
- BPRS Hostility improvement (Day 1 vs baseline): 0
- BPRS Mannerisms and Posturing improvement (Day 1 vs baseline): 0
- BPRS Motor retardation improvement (Day 1 vs baseline): 0
- BPRS Somatic Concern improvement (Day 1 vs baseline): 5
- BPRS Suspiciousness improvement (Day 1 vs baseline): 0
- BPRS Tension improvement (Day 1 vs baseline): 5
- BPRS Uncooperativeness improvement (Day 1 vs baseline): 0
- BPRS Unusual Thought Content improvement (Day 1 vs baseline): 0
- MADRS Apparent sadness improvement (Day 1 vs baseline): 5
- MADRS Concentration Difficulties improvement (Day 1 vs baseline): 0
- MADRS Inability to Feel improvement (Day 1 vs baseline): 3
- MADRS Inner Tension improvement (Day 1 vs baseline): 5
- MADRS Lassitude improvement (Day 1 vs baseline): 3
- MADRS Pessimistic Thoughts improvement (Day 1 vs baseline): 4
- MADRS Reduced Sleep improvement (Day 1 vs baseline): 5
- MADRS Reduced appetite improvement (Day 1 vs baseline): 0
- MADRS Reported sadness improvement (Day 1 vs baseline): 4
- MADRS Suicidal Thoughts improvement (Day 1 vs baseline): 0
- BIMF item 2 (I feel rested) score (Day 7, Day 0 score 0): 2
- BIMF item 19 (getting better at taking care of my baby) score (Day 7, Day 0 score 0): 1
- BIMF item 18 (Anxiety or worry often interferes with my mothering ability) score (Day 7, Day 0 score 2): 5
- BIMF item 16 (I worry about how other people judge me) score (Day 7, Day 0 score 3): 5
- BIMF item 13 (taking good care of my physical needs) score (Day 7, Day 0 score 4): 5
- BIMF item 4 (My baby and I understand each other) score (Day 7, Day 0 score 5): 5
- BIMF item 5 (able to relax and enjoy time with my baby) score (Day 7, Day 0 score 5): 6
- BIMF item 9 (getting enough encouragement from other people) score (Day 7, Day 0 score 5): 6
- BIMF item 10 (I trust my own feelings (instincts)) score (Day 7, Day 0 score 5): 6
- BIMF item 11 (a little time each week to do something for myself) score (Day 7, Day 0 score 5): 6
- BIMF item 15 (My baby and I are getting into a routine) score (Day 7, Day 0 score 5): 6
- BIMF item 17 (able to take care of my baby and my other responsibilities) score (Day 7, Day 0 score 5): 5
- BIMF item 1 (I am a good mother) score (Day 7, Day 0 score 6): 6
- BIMF item 3 (comfortable with the way I've chosen to feed my baby) score (Day 7, Day 0 score 6): 6
- BIMF item 6 (people in my life that I can trust to care for my baby) score (Day 7, Day 0 score 6): 6
- BIMF item 8 (getting enough adult interaction) score (Day 7, Day 0 score 6): 6
- BIMF item 12 (taking good care of my baby's physical needs) score (Day 7, Day 0 score 6): 6
- BIMF item 14 (good decisions about my baby's health and well being) score (Day 7, Day 0 score 6): 6
- BIMF item 20 (satisfied with the job I am doing as a new mother) score (Day 7, Day 0 score 6): 5
- MADRS Concentration Difficulties score (Day 7, baseline 0): 0
- MADRS Reduced appetite score (Day 7, baseline 0): 0
- MADRS Suicidal Thoughts score (Day 7, baseline 0): 0
- BPRS Blunted affect score (Day 7, baseline 1): 1
- BPRS Conceptual disorganization score (Day 7, baseline 1): 1
- BPRS Disorientation score (Day 7, baseline 1): 1
- BPRS Grandiosity score (Day 7, baseline 1): 1
- BPRS Hallucinatory behaviour score (Day 7, baseline 1): 1
- BPRS Hostility score (Day 7, baseline 1): 1
